This is an account of results in ChEMBL document CHEMBL3769401, “The first potent diphenyl phosphonate KLK4 inhibitors with unexpected binding kinetics” (Medchemcomm, 2015).

pIC50: −log10 of the molar value. Active and inactive are the calls of the source. The rule behind the calls is not given here.

Experiment [1] deals with Tissue-type plasminogen activator (Homo sapiens, UniProt P00750). Put plainly: Inhibition of recombinant tPA (unknown origin) using Biophen CS-05(88) as substrate.
The target of experiment [2] is Coagulation factor X (Homo sapiens, UniProt P00742). Put plainly: Inhibition of factor 10a (unknown origin) using Biophen CS-11(32) as substrate.
Coagulation factor X, sequence (P00742 41-179 limits assumed): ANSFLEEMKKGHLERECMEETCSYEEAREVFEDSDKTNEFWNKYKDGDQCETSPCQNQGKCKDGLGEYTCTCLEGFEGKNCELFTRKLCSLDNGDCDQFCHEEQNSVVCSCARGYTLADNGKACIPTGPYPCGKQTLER
Coagulation factor X, sequence (P00742 235-488 limits assumed): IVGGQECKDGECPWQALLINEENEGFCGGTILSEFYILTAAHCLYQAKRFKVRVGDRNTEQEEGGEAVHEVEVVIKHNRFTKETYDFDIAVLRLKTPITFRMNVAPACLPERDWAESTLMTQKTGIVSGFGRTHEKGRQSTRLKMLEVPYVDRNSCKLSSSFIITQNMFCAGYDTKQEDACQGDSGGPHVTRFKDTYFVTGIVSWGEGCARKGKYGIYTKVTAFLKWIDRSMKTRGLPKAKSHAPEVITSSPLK
For experiment [3], the target named is T1, Kallikrein-2 (Homo sapiens, UniProt P20151).
T1 sequence (P20151 whole entry): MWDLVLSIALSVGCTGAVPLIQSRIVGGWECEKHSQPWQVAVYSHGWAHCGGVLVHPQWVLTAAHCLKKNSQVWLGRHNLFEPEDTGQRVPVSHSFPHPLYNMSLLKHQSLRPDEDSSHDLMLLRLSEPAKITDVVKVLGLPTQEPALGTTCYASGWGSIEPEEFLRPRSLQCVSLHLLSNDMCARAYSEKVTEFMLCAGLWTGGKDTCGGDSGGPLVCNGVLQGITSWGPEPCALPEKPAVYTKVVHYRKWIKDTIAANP
The experiment in a line: Inhibition of human recombinant KLK2 expressed in Escherichia coli using Bachem I-1295 as substrate preincubated for 15 mins followed by substrate addition by microplate reader analysis.

Experiment [4] addresses T2, Kallikrein-8 (Homo sapiens, UniProt O60259).
T2 sequence (O60259 whole entry): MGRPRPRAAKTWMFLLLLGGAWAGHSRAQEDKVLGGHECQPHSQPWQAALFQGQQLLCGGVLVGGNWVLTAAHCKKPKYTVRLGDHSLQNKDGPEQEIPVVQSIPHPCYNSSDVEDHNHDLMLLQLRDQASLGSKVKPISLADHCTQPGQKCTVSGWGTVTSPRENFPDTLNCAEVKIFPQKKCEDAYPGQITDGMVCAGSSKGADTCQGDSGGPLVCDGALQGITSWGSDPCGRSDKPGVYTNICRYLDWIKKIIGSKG
Put plainly: Inhibition of human recombinant KLK8 expressed in Escherichia coli using Bachem I-1120 as substrate preincubated for 15 mins followed by substrate addition by microplate reader analysis.

The target in experiment [5] is Plasminogen (Homo sapiens, UniProt P00747). Put plainly: Inhibition of human plasma plasmin using Biophen CS-21(66) as substrate. Type of experiment: cell-free.
Plasminogen, sequence (P00747 97-580 limits assumed): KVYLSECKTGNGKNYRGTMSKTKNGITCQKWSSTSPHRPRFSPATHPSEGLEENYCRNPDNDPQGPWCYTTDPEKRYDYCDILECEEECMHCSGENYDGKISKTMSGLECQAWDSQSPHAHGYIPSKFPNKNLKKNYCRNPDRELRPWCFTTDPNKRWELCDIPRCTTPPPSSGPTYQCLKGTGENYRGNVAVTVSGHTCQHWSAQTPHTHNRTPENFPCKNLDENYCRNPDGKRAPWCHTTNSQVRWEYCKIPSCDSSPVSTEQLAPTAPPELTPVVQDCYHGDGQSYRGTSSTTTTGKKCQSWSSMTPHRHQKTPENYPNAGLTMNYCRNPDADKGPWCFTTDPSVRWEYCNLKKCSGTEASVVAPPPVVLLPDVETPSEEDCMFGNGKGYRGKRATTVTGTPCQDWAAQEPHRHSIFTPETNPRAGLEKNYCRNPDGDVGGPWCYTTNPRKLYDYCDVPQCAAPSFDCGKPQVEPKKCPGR
Plasminogen, sequence (P00747 581-810 limits assumed): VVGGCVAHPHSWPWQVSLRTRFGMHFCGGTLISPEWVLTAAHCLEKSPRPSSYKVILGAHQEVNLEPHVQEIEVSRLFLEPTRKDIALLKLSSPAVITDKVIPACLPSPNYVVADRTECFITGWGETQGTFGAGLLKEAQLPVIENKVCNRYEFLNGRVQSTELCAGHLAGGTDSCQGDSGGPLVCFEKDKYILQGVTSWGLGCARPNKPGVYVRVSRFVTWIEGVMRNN
The target of experiment [6] is T3, Kallikrein-1 (Homo sapiens, UniProt P06870). Put plainly: Irreversible inhibition of human recombinant KLK1 expressed in Escherichia coli using H-Pro-Phe-Arg-AMC as fluorogenic substrate at 100 times IC50 preincubated for 15 mins followed by 100 fold dilution measured for 1 hr.
Target sequence in this assay (P06870 25-262 limits assumed): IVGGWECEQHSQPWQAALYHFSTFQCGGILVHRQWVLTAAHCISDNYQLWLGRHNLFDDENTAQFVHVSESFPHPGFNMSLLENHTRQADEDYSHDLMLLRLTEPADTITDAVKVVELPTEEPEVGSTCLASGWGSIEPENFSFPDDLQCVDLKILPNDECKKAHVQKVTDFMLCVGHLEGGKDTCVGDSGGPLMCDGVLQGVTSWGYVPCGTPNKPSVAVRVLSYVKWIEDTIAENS
Experiment [7] deals with T4, Kallikrein-4 (Homo sapiens, UniProt Q9Y5K2). The experiment in a line: Inhibition of human recombinant KLK4 expressed in Escherichia coli using Bachem I-1120 as substrate preincubated for 15 mins followed by substrate addition by microplate reader analysis.
T4 sequence (Q9Y5K2 whole entry): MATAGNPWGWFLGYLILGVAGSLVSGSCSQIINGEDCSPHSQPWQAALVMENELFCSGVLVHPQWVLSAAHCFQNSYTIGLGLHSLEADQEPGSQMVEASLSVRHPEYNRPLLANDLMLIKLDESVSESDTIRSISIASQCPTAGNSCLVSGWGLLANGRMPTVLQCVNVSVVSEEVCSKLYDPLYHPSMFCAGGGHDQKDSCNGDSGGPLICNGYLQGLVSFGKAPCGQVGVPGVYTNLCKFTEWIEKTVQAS
Experiment [8] deals with Urokinase-type plasminogen activator (Homo sapiens, UniProt P00749). The experiment in a line: Inhibition of recombinant uPA (unknown origin) using Biophen CS-61(44) as substrate.
Experiment [9] addresses Acetylcholinesterase (Electrophorus electricus, UniProt O42275). Put plainly: Inhibition of Electrophorus electricus AChE using acetylthiocholine iodide as substrate by 5-5'-Dithiobis(2 nitrobenzoic acid)-based assay.
For experiment [10], the target named is T5, Prothrombin (Homo sapiens, UniProt P00734). The experiment in a line: Inhibition of human plasma thrombin using Biophen CS-21(66) as substrate preincubated for 15 mins followed by substrate addition by microplate reader analysis. It counts as cell-free.
Experiment [11] concerns the target T3, Kallikrein-1. The experiment in a line: Inhibition of human recombinant KLK1 expressed in Escherichia coli using Bachem I-1295 as substrate preincubated for 15 mins followed by substrate addition by microplate reader analysis.
Target sequence in this assay (P06870 whole entry): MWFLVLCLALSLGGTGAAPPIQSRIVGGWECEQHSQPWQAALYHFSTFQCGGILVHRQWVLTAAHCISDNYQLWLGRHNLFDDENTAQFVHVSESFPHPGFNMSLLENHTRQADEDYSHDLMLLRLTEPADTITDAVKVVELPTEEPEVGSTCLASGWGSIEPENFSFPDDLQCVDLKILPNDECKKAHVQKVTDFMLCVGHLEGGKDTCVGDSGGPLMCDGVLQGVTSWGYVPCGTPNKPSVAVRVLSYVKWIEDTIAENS
The target in experiment [12] is T5, Prothrombin. The experiment in a line: Reversible inhibition of human thrombin using Biophen CS-21(66) as substrate at 100 times IC50 preincubated for 15 mins followed by 100 fold dilution measured for 1 hr.
For experiment [13], the target named is T4, Kallikrein-4. Put plainly: Reversible inhibition of human recombinant KLK4 expressed in Escherichia coli using Bachem I-1120 as fluorogenic substrate at 100 times IC50 preincubated for 15 mins followed by 100 fold dilution measured for 1 hr by microplate reader analysis.
The target in experiment [14] is T6, Kallikrein-2 (Homo sapiens) (UniProt P20151).
T6 sequence (whole entry): T1 sequence (P20151 whole entry)
Put plainly: Irreversible inhibition of human recombinant KLK2 expressed in Escherichia coli using H-Pro-Phe-Arg-AMC as fluorogenic substrate at 100 times IC50 preincubated for 15 mins followed by 100 fold dilution measured for 1 hr.

Experiment [15] concerns the target T7, Kallikrein-8 (Homo sapiens) (UniProt O60259).
T7 sequence (whole entry): T2 sequence (O60259 whole entry)
The experiment in a line: Reversible inhibition of human recombinant KLK8 expressed in Escherichia coli using Boc-Val-Pro-Arg-AMC as fluorogenic substrate at 100 times IC50 preincubated for 15 mins followed by 100 fold dilution measured for 1 hr.

Experiment [16] addresses T6, Kallikrein-2 (Homo sapiens). Put plainly: Reversible inhibition of human recombinant KLK2 expressed in Escherichia coli using H-Pro-Phe-Arg-AMC as fluorogenic substrate at 100 times IC50 preincubated for 15 mins followed by 100 fold dilution measured for 1 hr.
For experiment [17], the species on record is Homo sapiens. The experiment in a line: Selectivity ratio of IC50 for human plasma thrombin to IC50 for human recombinant KLK4.
The species entered for experiment [18] is Homo sapiens. Put plainly: Selectivity ratio of IC50 for human recombinant KLK2 to IC50 for human recombinant KLK4.
The species entered for experiment [19] is Homo sapiens. Put plainly: Selectivity ratio of IC50 for recombinant tPA (unknown origin) to IC50 for human recombinant KLK4.
The species named for experiment [20] is Homo sapiens. Put plainly: Selectivity ratio of IC50 for recombinant uPA (unknown origin) to IC50 for human recombinant KLK4.
The species named for experiment [21] is Homo sapiens. Put plainly: Selectivity ratio of IC50 for factor 10a (unknown origin) to IC50 for human recombinant KLK4.
The target of experiment [22] is T3, Kallikrein-1. Put plainly: Reversible inhibition of human recombinant KLK1 expressed in Escherichia coli using H-Pro-Phe-Arg-AMC as fluorogenic substrate at 100 times IC50 preincubated for 15 mins followed by 100 fold dilution measured for 1 hr.
Target sequence in this assay (P06870 25-262 limits assumed): as the sequence (P06870 25-262 limits assumed) above
Experiment [23] is filed under the species Homo sapiens. Put plainly: Selectivity ratio of IC50 for human recombinant KLK1 to IC50 for human recombinant KLK4.
The species named for experiment [24] is Homo sapiens. Put plainly: Selectivity ratio of IC50 for human recombinant KLK8 to IC50 for human recombinant KLK4.
The species entered for experiment [25] is Homo sapiens. Put plainly: Selectivity ratio of IC50 for human plasma plasmin to IC50 for human recombinant KLK4.
A short description of experiment [26]: Selectivity ratio of IC50 for Electrophorus electricus AChE to IC50 for human recombinant KLK4.
In experiment [27] the target is T7, Kallikrein-8 (Homo sapiens). Put plainly: Irreversible inhibition of human recombinant KLK8 expressed in Escherichia coli using Boc-Val-Pro-Arg-AMC as fluorogenic substrate at 100 times IC50 preincubated for 15 mins followed by 100 fold dilution measured for 1 hr.

Tissue-type plasminogen activator, sequence (P00750 whole entry): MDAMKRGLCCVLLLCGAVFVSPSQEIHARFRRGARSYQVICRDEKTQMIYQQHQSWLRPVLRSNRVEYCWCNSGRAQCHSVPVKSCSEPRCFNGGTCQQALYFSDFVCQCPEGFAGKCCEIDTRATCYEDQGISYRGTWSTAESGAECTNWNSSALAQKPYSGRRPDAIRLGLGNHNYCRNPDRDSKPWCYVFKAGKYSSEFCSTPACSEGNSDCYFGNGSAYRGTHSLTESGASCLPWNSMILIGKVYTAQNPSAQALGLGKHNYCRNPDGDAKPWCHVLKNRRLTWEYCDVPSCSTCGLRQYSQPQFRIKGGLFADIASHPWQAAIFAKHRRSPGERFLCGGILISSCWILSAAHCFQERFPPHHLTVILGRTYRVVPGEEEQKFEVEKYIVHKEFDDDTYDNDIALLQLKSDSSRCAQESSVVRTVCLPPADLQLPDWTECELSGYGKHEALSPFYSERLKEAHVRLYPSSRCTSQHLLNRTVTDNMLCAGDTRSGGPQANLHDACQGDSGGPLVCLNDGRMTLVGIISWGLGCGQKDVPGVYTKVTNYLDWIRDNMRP
Acetylcholinesterase, sequence (O42275 whole entry): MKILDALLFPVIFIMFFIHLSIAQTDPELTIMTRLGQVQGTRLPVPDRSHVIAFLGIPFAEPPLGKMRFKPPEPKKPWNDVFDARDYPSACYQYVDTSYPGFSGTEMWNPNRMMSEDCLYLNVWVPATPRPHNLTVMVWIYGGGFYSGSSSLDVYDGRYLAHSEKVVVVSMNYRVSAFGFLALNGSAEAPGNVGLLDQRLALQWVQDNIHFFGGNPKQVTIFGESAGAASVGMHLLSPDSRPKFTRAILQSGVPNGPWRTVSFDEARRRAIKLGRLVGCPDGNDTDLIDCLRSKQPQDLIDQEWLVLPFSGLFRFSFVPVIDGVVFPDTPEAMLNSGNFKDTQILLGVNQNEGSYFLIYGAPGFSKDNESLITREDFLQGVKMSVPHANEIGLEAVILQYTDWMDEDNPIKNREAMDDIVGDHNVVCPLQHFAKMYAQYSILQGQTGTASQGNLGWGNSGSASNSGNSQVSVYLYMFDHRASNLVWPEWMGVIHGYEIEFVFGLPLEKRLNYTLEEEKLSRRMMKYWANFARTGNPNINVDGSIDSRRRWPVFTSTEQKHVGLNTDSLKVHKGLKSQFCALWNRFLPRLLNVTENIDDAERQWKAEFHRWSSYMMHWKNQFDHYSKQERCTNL

Broadly, the pIC50 is the negative decadic logarithm of the IC50, by convention in mol/L. Take `O=C(NC(c1ccc(O)cc1)P(=O)(Oc1ccccc1)Oc1ccccc1)OCc1ccccc1` (centres undefined): the pIC50 in experiment [1] is < 5.00; in experiment [2], < 5.00; in [3], < 5.60; in experiment [4], < 5.00; in [5], < 5.00; in experiment [7] it was < 5.00. Moreover, the pIC50 in experiment [8] is < 5.00; in [9] it was < 5.00; in experiment [10], < 5.00; in experiment [11], 7.07. Besides, the inhibition result in experiment [6] was “Active”.
`Nc1ccc(C(NC(=O)OCc2ccccc2)P(=O)(Oc2ccccc2)Oc2ccccc2)cc1` (centres undefined): the pIC50 in experiment [1] was < 5.00; in experiment [2] it was < 5.00; in experiment [3], < 5.60; in [4], < 5.00; in experiment [5], < 5.00; in experiment [7] it was < 5.00. The pIC50 in [8], in experiment [9], in experiment [10] and in experiment [11] was < 5.00 throughout.
Consider `Nc1ccc(CC(NC(=O)OCc2ccccc2)P(=O)(Oc2ccccc2)Oc2ccccc2)cc1` (centres undefined), for which the pIC50 in [1] was 4.49; in experiment [2] it was < 5.00; in experiment [3], < 5.00; in experiment [4], < 5.00; in experiment [7], < 5.00; in experiment [8] it was 4.70. Besides, the pIC50 in [10] is 4.21; in experiment [11], < 5.00.
On to `N=C(N)NCCCC(NC(=O)OCc1ccccc1)P(=O)(Oc1ccccc1)Oc1ccccc1` (centres undefined), for which the inhibition result in [12] is “Active”. Moreover, the pIC50 in experiment [2] was < 5.00; in experiment [3] it was < 5.60; in [4], 6.90; in [7] it was 7.40; in [9], < 5.00; in experiment [10], 6.10. In addition, the pIC50 in experiment [11] is 6.09. Further, the “reversible inhibition (activity call)” value in experiment [13] is “Active”.
For the compound `N=C(N)Nc1ccc(CP(=O)(Oc2ccccc2)Oc2ccccc2)cc1`, the pIC50 was < 5.00 in experiment [1]; < 5.00 in experiment [2]; 5.61 in experiment [3]; 5.84 in experiment [4]; < 5.00 in experiment [5]; 6.60 in experiment [7]. The pIC50 in experiment [8] was 5.85; in experiment [9], < 5.00; in [10] it was < 5.00; in [11], < 5.60. Besides, the “reversible inhibition (activity call)” value in [13] was “Active”. In addition, the inhibition entry in [14] and in experiment [15] was “Active” each time.
As to `N=C(N)Nc1ccc(CC(NC(=O)OCc2ccccc2)P(=O)(Oc2ccccc2)Oc2ccccc2)cc1` (centres undefined), the inhibition entry in [12], in [15] and in experiment [16] was “Active” each time. In addition, the negative logarithm of the IC50 (pIC50) in [2] is < 5.00; in [3] it was 6.28; in [4] it was 6.77; in [9], < 4.70; in experiment [11] it was < 5.00. Moreover, the “reversible inhibition (activity call)” value in experiment [13] was “Active”.
As for `N=C(N)c1ccc(CCC(NC(=O)OCc2ccccc2)P(=O)(Oc2ccccc2)Oc2ccccc2)cc1` (centres undefined), the “reversible inhibition (activity call)” value in [13] is “Active”. In addition, the pIC50 in experiment [3] is 6.14; in [4], 5.30; in experiment [7], 7.82; in experiment [9], < 4.70; in experiment [11] it was 5.86. Further, in experiment [16], the inhibition result was “Active”.
For `N=C(N)Nc1ccc(CCP(=O)(Oc2ccccc2)Oc2ccccc2)cc1`, the negative logarithm of the IC50 (pIC50) was < 5.00 in [1]; < 5.00 in experiment [2]; 5.52 in experiment [3]; 6.77 in experiment [4]; < 5.00 in experiment [5]; 7.10 in experiment [7]. For the same compound, the pIC50 in experiment [8] was 8.10; in experiment [9] it was < 5.00; in [10], < 5.00; in experiment [11], < 5.60. The “reversible inhibition (activity call)” value in experiment [13] is “Active”. Moreover, the inhibition result in [14] and in [15] was “Active” throughout.
For the compound `NCCCC(NC(=O)OCc1ccccc1)P(=O)(Oc1ccccc1)Oc1ccccc1` (centres undefined), the pIC50 in [1] is < 5.60; in experiment [2], < 3.60; in experiment [3] it was < 5.60; in experiment [4], < 5.00; in experiment [5] it was < 3.60; in [7], < 5.60. For the same compound, the pIC50 is < 3.60 in experiment [8], < 5.00 in experiment [9], < 5.60 in experiment [10] and < 5.00 in experiment [11].
Consider `N=C(N)Nc1ccc(C(NC(=O)OCc2ccccc2)P(=O)(Oc2ccccc2)Oc2ccccc2)cc1` (centres undefined), for which the pIC50 was 3.60 in [1]; 5.44 in [2]; 6.66 in experiment [3]; 5.94 in [4]; 5.31 in experiment [5]; 8.47 in experiment [7]. The pIC50 in experiment [8] is 5.57; in [9], < 5.00; in experiment [10], 3.60; in [11], 6.62. Further, the Ratio IC50 in [17] was > 300; in experiment [18], 70; in experiment [19] it was > 300; in [20] it was > 300; in [21], > 300; in [23] it was 70. The Ratio IC50 in experiment [24], in [25] and in experiment [26] was > 300 in each case. For the same compound, the “reversible inhibition (activity call)” value in [13] is “Active”. The inhibition result in experiment [22] and in experiment [16] was “Active” throughout.
With `N=C(N)c1ccc(C(NC(=O)OCc2ccccc2)P(=O)(Oc2ccccc2)Oc2ccccc2)cc1` (centres undefined), the pIC50 was < 5.60 in experiment [1]; < 5.60 in experiment [2]; < 5.60 in experiment [3]; 6.10 in experiment [4]; < 5.60 in experiment [5]; 7.39 in experiment [7]. Further, the negative-log IC50 (pIC50) was < 5.00 in [9], 6.71 in experiment [10] and < 5.60 in [11]. The inhibition result in experiment [12] and in experiment [27] was “Active” in each case. Moreover, the “reversible inhibition (activity call)” value in [13] was “Active”.
